Patent US6291678A, “Process for the preparation of chiral keto-heterocycles of basic amino acids” (Warner-Lambert Company, priority 1998, dated 2001)

Key:
[1] = test system: rat carotid artery; assay: Rat arterial model of thrombosis (FeCl3 injury of the carotid artery), markers of anticoagulant activity in vivo; settings: for Fold Shift in aPTT: activated partial thromboplastin time at 30 minute time point, control aPTT 15 s; for Fold Shift in aPTT / Fold Shift in TT: loading dose 0.75 mg/kg plus infusion of 50 μg/kg/min; for Fold Shift in MOT: mean occlusion time, loading dose 0.75 mg/kg plus continual infusion of 50 μg/kg/min, control MOT 20 minutes; for Fold Shift in TT: thrombin time at 30 minute time point, control TT 30 s
Description: The ability of compounds to affect markers of anticoagulant activity in vivo were assessed in a rat arterial model of thrombosis. This model requires injury of the rat carotid artery by the application of a FeCl3 solution. Typically test substances are administered by applying a loading dose of 0.75 mg/kg plus continual infusion of 50 μg/kg/min.
The fold shift in aPTT and TT are measured at a 30 minute time point.

[2] = biological target: T1, trypsin (Bos taurus, UniProt P00760); assay: Trypsin inhibitory activity (chromogenic substrate S2222); type: biochemical; settings: protocol similar to thrombin
T1 sequence (P00760 24-246): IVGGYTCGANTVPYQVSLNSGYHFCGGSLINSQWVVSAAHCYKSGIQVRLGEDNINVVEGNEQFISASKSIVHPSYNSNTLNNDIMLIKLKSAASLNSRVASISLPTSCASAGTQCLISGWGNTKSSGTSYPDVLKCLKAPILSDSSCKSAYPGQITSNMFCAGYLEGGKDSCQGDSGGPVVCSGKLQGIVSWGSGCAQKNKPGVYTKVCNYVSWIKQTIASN
Description: The ability of compounds to act as inhibitors of thrombin catalytic activity is assessed by determination of that concentration of test substance that inhibits by 50% (IC50) the ability of thrombin to cleave the chromogenic substrate S-2238 (H-D-Phe-L-Pip-L-Arg-p-nitroanilide.2 HCl). Typically thrombin in 10 mM HEPES, 100 mM NaCl, 0.05% BSA, and 0.1% PEG-8000 and the test substance in DMSO are incubated for 60 minutes at room temperature. To this mixture is added S-2238 and the velocity of S-2238 hydrolysis measured by observing the intensity of absorbance at 405 nm over 5 minutes.
A similar protocol is followed to access the trypsin inhibitory activity of the test substances, except thrombin is replaced by trypsin and the chromogenic substrate is S2222 (N-Bz-L-Ile-L-Glu-L-Gly-L-Arg-p-nitroanilide.HCl).

[3] = biological target: thrombin (Homo sapiens, UniProt P00734); assay: Inhibition of thrombin catalytic activity (cleavage of chromogenic substrate S-2238); type: biochemical; settings: S-2238 substrate; 60 minutes incubation at room temperature; absorbance at 405 nm over 5 minutes
Description: Typically thrombin in 10 mM HEPES, 100 mM NaCl, 0.05% BSA, and 0.1% PEG-8000 and the test substance in DMSO are incubated for 60 minutes at room temperature.

| Structure (SMILES) | Fold Shift in aPTT [1] | Fold Shift in MOT [1] | Fold Shift in TT [1] | IC50 [2] [nM] | IC50 [3] [nM] |
| --- | --- | --- | --- | --- | --- |
| N=C(N)NCCC[C@H](NC(=O)[C@@H]1CC[C@H]2CN(C(=O)CCc3ccccc3)CC(=O)N21)C(=O)c1nccs1 [A] | 3.2 | 2.4 | 13 | 1 | 5 |
| N=C(N)N1CCC[C@@H](C[C@H](NC(=O)[C@@H]2CC[C@H]3CN(C(=O)CCc4ccccc4)CC(=O)N32)C(=O)c2nccs2)C1 [B] | 3.1 | > 3 | 15 | 4350 | 30 |
